Results from ChEMBL document CHEMBL4811221, “Diosgenin Derivatives as Potential Antitumor Agents: Synthesis, Cytotoxicity, and Mechanism of Action” (J Nat Prod, 2021).
Active and inactive are the calls of the source. The calls are words filed in the database; no cut-off is given here.

Key:
[1] = test system: A549; test: Cytotoxicity against human A549 cells assessed as cell growth inhibition measured after 24 hrs by MTT assay; format: functional, cell-based; conditions: A549, 24 h
[2] = test system: MCF7; test: Cytotoxicity against human MCF7 cells assessed as cell growth inhibition measured after 24 hrs by MTT assay; format: functional, cell-based; conditions: MCF7, 24 h
[3] = test system: HepG2; test: Cytotoxicity against human HepG2 cells assessed as cell growth inhibition measured after 24 hrs by MTT assay; format: functional, cell-based; conditions: HepG2, 24 h
[4] = test system: L02; test: Cytotoxicity against human L02 cells assessed as cell growth inhibition measured after 24 hrs by MTT assay; format: cell-based; conditions: L02, 24 h
[5] = test system: HepG2; test: Cell cycle arrest in human HepG2 cells assessed as accumulation at G0/G1 phase at 4 uM measured after 24 hrs by RNaseA/propidium iodide staining based flow cytometry (reference value: 49.3 %); format: functional
[6] = test system: HepG2; test: Cell cycle arrest in human HepG2 cells assessed as accumulation at S phase at 4 uM measured after 24 hrs by RNaseA/propidium iodide staining based flow cytometry (reference value: 24.3 %); format: functional
[7] = test system: HepG2; test: Cell cycle arrest in human HepG2 cells assessed as accumulation at G2/M phase at 4 uM measured after 24 hrs by RNaseA/propidium iodide staining based flow cytometry (reference value: 22.9 %); format: functional
[8] = test system: HepG2; test: Cell cycle arrest in human HepG2 cells assessed as accumulation at G0/G1 phase at 8 uM measured after 24 hrs by RNaseA/propidium iodide staining based flow cytometry (reference value: 49.3 %); format: functional
[9] = test system: HepG2; test: Cell cycle arrest in human HepG2 cells assessed as accumulation at S phase at 8 uM measured after 24 hrs by RNaseA/propidium iodide staining based flow cytometry (reference value: 24.3 %); format: functional
[10] = test system: HepG2; test: Cell cycle arrest in human HepG2 cells assessed as accumulation at G2/M phase at 8 uM measured after 24 hrs by RNaseA/propidium iodide staining based flow cytometry (reference value: 22.9 %); format: functional
[11] = test system: HepG2; test: Induction of apoptosis in human HepG2 cells assessed as discernible cell rounding at 4 to 8 uM by fluorescent microscopic analysis; format: functional, cell-based; conditions: dose 4-8 µM
[12] = test system: HepG2; test: Induction of apoptosis in human HepG2 cells assessed as cell shrinkage at 4 to 8 uM by fluorescent microscopic analysis; format: functional, cell-based; conditions: dose 4-8 µM
[13] = test system: HepG2; test: Induction of apoptosis in human HepG2 cells assessed as membrane blebbing at 4 to 8 uM by fluorescent microscopic analysis; format: functional, cell-based; conditions: dose 4-8 µM
[14] = test system: HepG2; test: Induction of apoptosis in human HepG2 cells assessed as formation of apoptotic bodies at 4 to 8 uM by fluorescent microscopic analysis; format: functional, cell-based; conditions: dose 4-8 µM
[15] = test system: HepG2; test: Induction of apoptosis in human HepG2 cells assessed as live cells at 4 uM measured after 24 hrs by annexinV-FITC/propidium iodide staining based flow cytometry (reference value: 91.7 %); format: functional
[16] = test system: HepG2; test: Induction of apoptosis in human HepG2 cells assessed as early apoptotic cells at 4 uM measured after 24 hrs by annexinV-FITC/propidium iodide staining based flow cytometry (reference value: 2.03 %); format: functional
[17] = test system: HepG2; test: Induction of apoptosis in human HepG2 cells assessed as late apoptotic cells at 4 uM measured after 24 hrs by annexinV-FITC/propidium iodide staining based flow cytometry (reference value: 5.45 %); format: functional
[18] = test system: HepG2; test: Induction of apoptosis in human HepG2 cells assessed as necrotic cells at 4 uM measured after 24 hrs by annexinV-FITC/propidium iodide staining based flow cytometry (reference value: 0.77 %); format: functional
[19] = test system: HepG2; test: Induction of apoptosis in human HepG2 cells assessed as live cells at 8 uM measured after 24 hrs by annexinV-FITC/propidium iodide staining based flow cytometry (reference value: 91.7 %); format: functional
[20] = test system: HepG2; test: Induction of apoptosis in human HepG2 cells assessed as early apoptotic cells at 8 uM measured after 24 hrs by annexinV-FITC/propidium iodide staining based flow cytometry (reference value: 2.03 %); format: functional
[21] = test system: HepG2; test: Induction of apoptosis in human HepG2 cells assessed as late apoptotic cells at 8 uM measured after 24 hrs by annexinV-FITC/propidium iodide staining based flow cytometry (reference value: 5.45 %); format: functional
[22] = test system: HepG2; test: Induction of apoptosis in human HepG2 cells assessed as necrotic cells at 8 uM measured after 24 hrs by annexinV-FITC/propidium iodide staining based flow cytometry (reference value: 0.77 %); format: functional

C[C@@H]1CC[C@@]2(OC1)O[C@H]1C[C@H]3[C@@H]4CC=C5C[C@@H](OC(=O)CCC(=O)N6CCNCC6)CC[C@]5(C)[C@H]4CC[C@]3(C)[C@H]1[C@@H]2C
IC50 [1]: 2.4 µM
IC50 [2]: 2.8 µM
IC50 [3]: 1.9 µM
IC50 [4]: 18.6 µM
Activity [5]: 57.4%
Activity [6]: 21.5%
Activity [7]: 18.6%
Activity [8]: 64.2%
Activity [9]: 17.5%
Activity [10]: 17.3%
Activity [11]: Active
Activity [12]: Active
Activity [13]: Active
Activity [14]: Active
Activity [15]: 88.7%
Activity [16]: 6.08%
Activity [17]: 5.12%
Activity [18]: 0.093%
Activity [19]: 78.7%
Activity [20]: 13.2%
Activity [21]: 7.85%
Activity [22]: 0.18%
